One assay deals with T1, SET8 (191-352) (Homo sapiens, UniProt Q9NQR1).
T1 construct: SET8 (191-352)
T1 sequence (Q9NQR1 191-352 isoform Q9NQR1-2): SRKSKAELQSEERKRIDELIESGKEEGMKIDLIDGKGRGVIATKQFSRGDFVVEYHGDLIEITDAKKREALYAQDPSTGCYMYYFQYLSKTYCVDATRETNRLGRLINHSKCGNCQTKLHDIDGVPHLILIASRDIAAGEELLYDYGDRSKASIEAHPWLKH
Description: Filter-paper methylation assay, SET8. The class given is biochemical. As to conditions: 1000 nM enzyme, H4 (10-30 aa) peptide, 8 h.

Another assay has as its target T2, G9a (913-1913) (Homo sapiens, UniProt Q96KQ7).
T2 construct: G9a (913-1913)
Description: Filter-paper methylation assay, G9a. The class given is biochemical. The note with it: 20 nM enzyme, H3 (1-21 aa) peptide, 1 h.

A further assay concerns the target T3, SETD2 (1347-1711) (Homo sapiens, UniProt Q9BYW2).
T3 construct: SETD2 (1347-1711)
T3 sequence (Q9BYW2 1347-1711): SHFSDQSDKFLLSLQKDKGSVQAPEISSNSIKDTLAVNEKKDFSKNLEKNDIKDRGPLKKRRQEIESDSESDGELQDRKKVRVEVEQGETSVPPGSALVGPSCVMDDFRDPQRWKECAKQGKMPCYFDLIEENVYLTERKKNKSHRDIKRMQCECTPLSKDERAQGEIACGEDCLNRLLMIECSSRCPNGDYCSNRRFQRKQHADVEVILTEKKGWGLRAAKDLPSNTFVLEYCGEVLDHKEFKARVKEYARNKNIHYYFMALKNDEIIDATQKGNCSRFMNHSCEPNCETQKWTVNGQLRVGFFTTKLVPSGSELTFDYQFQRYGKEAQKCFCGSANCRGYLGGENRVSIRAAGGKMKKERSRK
Kind of assay: Filter-paper methylation assay, SETD2. The class given is biochemical. The note with it: 250 nM enzyme, H3 (20-50 aa) peptide, 4 h.

For the next assay, the target named is T4, CARM1 (19-608) (Homo sapiens, UniProt Q86X55).
T4 construct: CARM1 (19-608)
T4 sequence (Q86X55 19-608): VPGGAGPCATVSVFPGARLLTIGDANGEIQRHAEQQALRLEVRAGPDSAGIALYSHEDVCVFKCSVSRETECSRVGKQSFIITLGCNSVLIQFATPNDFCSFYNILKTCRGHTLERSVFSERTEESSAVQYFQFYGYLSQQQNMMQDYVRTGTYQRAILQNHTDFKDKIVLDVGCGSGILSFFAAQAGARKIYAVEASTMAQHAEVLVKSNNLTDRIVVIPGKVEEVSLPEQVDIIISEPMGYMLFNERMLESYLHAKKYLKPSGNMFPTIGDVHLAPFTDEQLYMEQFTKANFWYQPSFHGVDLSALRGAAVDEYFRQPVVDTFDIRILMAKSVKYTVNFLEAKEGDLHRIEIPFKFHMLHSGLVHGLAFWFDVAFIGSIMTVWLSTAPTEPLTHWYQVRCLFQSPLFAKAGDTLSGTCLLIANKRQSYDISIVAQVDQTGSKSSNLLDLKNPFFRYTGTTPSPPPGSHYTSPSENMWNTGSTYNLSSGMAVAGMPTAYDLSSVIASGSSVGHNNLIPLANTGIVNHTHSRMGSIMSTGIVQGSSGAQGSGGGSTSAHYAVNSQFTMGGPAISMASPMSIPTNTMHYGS
Description: Filter-paper methylation assay, CARM1. The note with it: for selectivity for CARM1 inhibition: among the subset of PMTs screened. The class given is biochemical.

The next assay has as its target T5, SUV39H2 (112-410) (Homo sapiens, UniProt Q9H5I1).
T5 construct: SUV39H2 (112-410)
Description: Filter-paper methylation assay, SUV39H2. The class given is biochemical. As to conditions: 5 nM enzyme, H3 (1-21 aa) peptide, 4 h.

The target of another assay is T6, PRMT3 (211-531) (Homo sapiens, UniProt O60678).
T6 construct: PRMT3 (211-531)
T6 sequence (O60678 211-531): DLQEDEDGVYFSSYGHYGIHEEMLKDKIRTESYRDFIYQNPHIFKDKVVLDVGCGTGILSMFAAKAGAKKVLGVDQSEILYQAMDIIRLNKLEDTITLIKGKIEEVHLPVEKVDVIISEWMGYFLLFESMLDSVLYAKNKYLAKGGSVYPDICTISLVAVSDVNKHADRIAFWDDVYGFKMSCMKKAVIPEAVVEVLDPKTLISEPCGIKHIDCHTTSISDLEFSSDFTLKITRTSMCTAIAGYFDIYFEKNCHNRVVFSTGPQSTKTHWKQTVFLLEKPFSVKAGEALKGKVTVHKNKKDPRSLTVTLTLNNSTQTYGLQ
Kind of assay: Filter-paper methylation assay, PRMT3. The class given is biochemical. The note with it: 100 nM enzyme, RGG peptide, 3 h.

The next assay deals with T7, SMYD2 Full-length (Homo sapiens, UniProt Q9NRG4).
T7 construct: SMYD2 Full-length
T7 sequence (Q9NRG4 whole entry): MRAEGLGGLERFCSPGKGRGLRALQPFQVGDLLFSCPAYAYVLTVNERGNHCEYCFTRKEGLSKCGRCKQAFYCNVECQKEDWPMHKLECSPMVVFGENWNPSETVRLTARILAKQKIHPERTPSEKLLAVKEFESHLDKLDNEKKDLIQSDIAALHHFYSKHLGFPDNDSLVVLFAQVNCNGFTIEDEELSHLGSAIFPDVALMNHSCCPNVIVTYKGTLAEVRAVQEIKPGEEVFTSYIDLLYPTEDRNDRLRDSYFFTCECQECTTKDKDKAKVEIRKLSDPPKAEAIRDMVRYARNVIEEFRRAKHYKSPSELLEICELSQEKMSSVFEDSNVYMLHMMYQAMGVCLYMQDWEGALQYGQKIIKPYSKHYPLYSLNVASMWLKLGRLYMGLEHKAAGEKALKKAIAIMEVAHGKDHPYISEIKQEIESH
Kind of assay: Filter-paper methylation assay, SMYD2. Format: biochemical. The note with it: 50 nM enzyme, p53 (360-393 aa) peptide, 10 h; read-out: IC50 SMYD2-FL.

The target of a further assay is T8, SET7/9 Full-length (Homo sapiens, UniProt Q8WTS6).
T8 construct: SET7/9 Full-length
T8 sequence (Q8WTS6 1-366): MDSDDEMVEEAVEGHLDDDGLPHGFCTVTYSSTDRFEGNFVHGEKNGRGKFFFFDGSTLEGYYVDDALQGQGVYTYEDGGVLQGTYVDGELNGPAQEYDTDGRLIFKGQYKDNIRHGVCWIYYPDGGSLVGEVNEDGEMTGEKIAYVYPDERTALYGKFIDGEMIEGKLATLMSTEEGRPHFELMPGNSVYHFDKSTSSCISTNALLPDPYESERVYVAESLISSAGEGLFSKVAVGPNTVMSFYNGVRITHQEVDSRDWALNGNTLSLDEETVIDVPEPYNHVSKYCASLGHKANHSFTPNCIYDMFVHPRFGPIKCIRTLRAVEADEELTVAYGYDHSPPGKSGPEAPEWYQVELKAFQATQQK
Kind of assay: Filter-paper methylation assay, SET7/9. The class given is biochemical. As to conditions: 150 nM enzyme, H3 (1-21 aa) peptide, 3 h.

Another assay concerns the target T9, GLP1 (951-1235) (Homo sapiens, UniProt Q9H9B1).
T9 sequence (Q9H9B1 982-1266 limits assumed): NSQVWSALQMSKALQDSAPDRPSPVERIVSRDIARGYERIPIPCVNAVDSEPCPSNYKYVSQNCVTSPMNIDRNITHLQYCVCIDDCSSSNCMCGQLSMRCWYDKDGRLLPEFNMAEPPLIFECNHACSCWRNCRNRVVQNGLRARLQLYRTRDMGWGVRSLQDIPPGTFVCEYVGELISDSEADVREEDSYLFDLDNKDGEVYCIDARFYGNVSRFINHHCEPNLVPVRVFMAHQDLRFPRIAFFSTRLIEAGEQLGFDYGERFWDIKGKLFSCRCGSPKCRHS
Description: biochemical. The note with it: 10 nM enzyme, H3 (1-21 aa) peptide, 1 h.

The target in a further assay is T10, PRMT1 (10-352) (Homo sapiens, UniProt Q99873).
T10 construct: PRMT1 (10-352)
T10 sequence (Q99873 10-352 isoform Q99873-3, species assumed): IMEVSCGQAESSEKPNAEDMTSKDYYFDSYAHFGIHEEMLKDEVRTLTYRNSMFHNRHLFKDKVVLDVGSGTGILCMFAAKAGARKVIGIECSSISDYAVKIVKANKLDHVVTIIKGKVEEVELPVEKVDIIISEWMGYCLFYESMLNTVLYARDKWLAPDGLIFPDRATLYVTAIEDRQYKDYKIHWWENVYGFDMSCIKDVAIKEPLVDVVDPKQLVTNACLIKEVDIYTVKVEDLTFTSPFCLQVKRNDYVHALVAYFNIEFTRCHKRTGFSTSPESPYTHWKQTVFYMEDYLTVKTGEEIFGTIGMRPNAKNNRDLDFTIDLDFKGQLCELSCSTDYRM
Description: Filter-paper methylation assay, PRMT1. The class given is biochemical. The note with it: 100 nM enzyme, RGG peptide, 1.5 h.

Assay [1] relates to histone 3 lysine 36 tri-methyl. Description: Cellular assay, histone methylation in HEK-293T cells. As to conditions: "in vivo", up to 100 μM, 24 h, H3K36 tri-methyl blot. Format: cell-based.

One may read the IC50 as the concentration that gives 50% inhibition.

Where two headings read alike, the source gives them in different places.

T5 sequence (Q9H5I1 112-410): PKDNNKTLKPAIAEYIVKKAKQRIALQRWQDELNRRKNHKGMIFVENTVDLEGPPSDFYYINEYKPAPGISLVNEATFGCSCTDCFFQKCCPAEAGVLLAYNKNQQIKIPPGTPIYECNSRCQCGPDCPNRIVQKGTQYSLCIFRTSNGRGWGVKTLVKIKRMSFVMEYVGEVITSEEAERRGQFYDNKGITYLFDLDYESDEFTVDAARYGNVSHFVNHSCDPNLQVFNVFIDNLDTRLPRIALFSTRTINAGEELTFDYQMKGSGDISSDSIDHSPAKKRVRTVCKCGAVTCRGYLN
T2 sequence (Q96KQ7 913-1193): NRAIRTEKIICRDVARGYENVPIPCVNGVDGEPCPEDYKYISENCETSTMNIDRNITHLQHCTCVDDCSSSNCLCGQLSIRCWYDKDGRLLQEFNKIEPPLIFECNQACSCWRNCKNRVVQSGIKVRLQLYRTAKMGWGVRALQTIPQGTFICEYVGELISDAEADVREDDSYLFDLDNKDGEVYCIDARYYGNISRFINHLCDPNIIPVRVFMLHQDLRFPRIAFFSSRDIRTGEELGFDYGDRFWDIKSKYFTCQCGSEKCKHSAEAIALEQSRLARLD

With `Nc1ncnc2c1ncn2[C@@H]1O[C@H](C[C@H](CC[C@H](N)C(=O)O)CNCc2ccccc2)[C@H](O)C1O` (some centres unmarked) [Compound 202], the IC50 against SET8 (191-352) is > 100 µM; on G9a (913-1913), > 100 µM; on SETD2 (1347-1711), 10.8 µM; at CARM1 (19-608), 0.09 µM; on SUV39H2 (112-410), 10.1 µM; at PRMT3 (211-531), 3.4 µM. Moreover, the IC50 on SMYD2 Full-length is 1.6 µM; against SET7/9 Full-length it was > 100 µM; on GLP1 (951-1235), > 100 µM; at PRMT1 (10-352) it was 15.2 µM. For the same compound, the “selectivity for CARM1 inhibition” value on CARM1 (19-608) is “apparent selectivity”.

As for `CNC(CCC(N)C(=O)O)CC1OC(n2cnc3c(N)ncnc32)C(O)C1O` (centres unmarked) [Compound 101], the IC50 against SET8 (191-352) is > 100 µM; at G9a (913-1913) it was 165 µM; against SETD2 (1347-1711), 125 µM; against CARM1 (19-608) it was 1.7 µM; at SUV39H2 (112-410), 43.2 µM; against PRMT3 (211-531) it was 76.2 µM. For the same compound, the IC50 at SMYD2 Full-length worked out at 0.5 µM; on SET7/9 Full-length it was 1.4 µM; against GLP1 (951-1235), 374 µM; against PRMT1 (10-352), 83.9 µM.

For `COC(=O)C(N)CCC(CC1OC(n2cnc3c(N)ncnc32)C(O)C1O)NCCNC(=N)N` (centres unmarked) [Compound 109], the IC50 on SET8 (191-352) is > 100 µM; against G9a (913-1913), > 100 µM; against SETD2 (1347-1711), 37 µM; on CARM1 (19-608) it was 0.05 µM; against SUV39H2 (112-410) it was 33 µM; against PRMT3 (211-531) it was 1.8 µM. Further, the IC50 was 1.7 µM on SMYD2 Full-length, 0.19 µM at SET7/9 Full-length, > 100 µM against GLP1 (951-1235) and 2 µM on PRMT1 (10-352). For the same compound, on CARM1 (19-608), the “selectivity for CARM1 inhibition” value is listed as “apparent selectivity”.

On to `CCCN[C@@H](CC[C@H](N)C(=O)O)C[C@H]1O[C@@H](n2cnc3c(N)ncnc32)[C@H](O)[C@@H]1O` [Compound 102], for which the IC50 on SET8 (191-352) was > 100 µM; on G9a (913-1913), > 100 µM; on SETD2 (1347-1711), 0.8 µM; on CARM1 (19-608) (300 nM enzyme, H3 (1-40 aa) peptide, 7 h, read-out: IC50 CARM1), 3 µM; on SUV39H2 (112-410), 9.8 µM; at PRMT3 (211-531), ~100 µM. Also, the IC50 on SMYD2 Full-length is 0.5 µM; against SET7/9 Full-length, 2.2 µM; against GLP1 (951-1235), > 100 µM; against PRMT1 (10-352), 9.5 µM. Further, the inhibiting histone methyltransferase result in assay [1] is “showed activity in inhibiting histone methyltransferase”.

`NC(=O)[C@@H](N)CC[C@@H](C[C@H]1O[C@@H](n2cnc3c(NC(=O)c4ccccc4)ncnc32)C(O)[C@H]1O)NCC(F)(F)F` (some centres unmarked) [Compound 107]: the IC50 at SET8 (191-352) is > 100 µM; against G9a (913-1913), > 100 µM; at SETD2 (1347-1711) it was > 100 µM; against CARM1 (19-608) it was ~50 µM; against SUV39H2 (112-410) it was > 100 µM; against PRMT3 (211-531), > 100 µM. Moreover, the IC50 is ~50 µM at SMYD2 Full-length, > 100 µM on SET7/9 Full-length, > 100 µM against GLP1 (951-1235) and > 100 µM on PRMT1 (10-352).

The values are drawn from patent US9493501B2, “Methyltransferase inhibitors for treating cancer” (MEMORIAL SLOAN-KETTERING CANCER CENTER, priority 2011, dated 2016).
